According to PMC7924852, “The Emericellipsins A–E from an Alkalophilic Fungus Emericellopsis alkalina Show Potent Activity against Multidrug-Resistant Pathogenic Fungi” (Journal of Fungi, 2021):
In brackets after ≈: the same amount, converted by molar mass. Like-named read-outs stand apart in the source and are kept apart here. Starred links: 1 amine or outer side, 2 acyl side, 3 side chain; linkers in the order of their positions; H or OH if unused. Positions of bridges follow the written chain, without caps; N, C: chain ends. Non-standard residues stand in square brackets, D forms with d. Residues, ends and D or L forms follow the SMILES beside them. *: point of attachment. hTyr(3S-OH,4S-OH,3'-OSO3H) = N[C@H](C(=O)O)[C@H](O)[C@@H](O)c1ccc(O)c(OS(=O)(=O)O)c1; Orn(4R-OH,5R-OH) = O=C([C@H](C[C@@H](O)[C@@H](O)N[*:3])N[*:1])[*:2]; Pro(3S-OH,4S-Me) = C[C@H]1CN[C@H](C(=O)O)[C@H]1O; X1 = CCCCCOc1ccc(-c2cc(-c3ccc(C(=O)*)cc3)no2)cc1; Gln(3R-OH) = NC(=O)C[C@@H](O)[C@H](N)C(=O)O; Hyp = O=C(O)[C@@H]1C[C@@H](O)CN1

Assays:
[1] = tested on: Aspergillus niger 1133m; experiment: Sensititre YeastOne antifungal susceptibility test; format: cell-based
[2] = tested on: A. fumigatus 390m; experiment: Sensititre YeastOne antifungal susceptibility test; format: cell-based; details: Aspergillus fumigatus
[3] = tested on: A. terreus 497; experiment: Sensititre YeastOne antifungal susceptibility test; format: cell-based; details: Aspergillus terreus
[4] = tested on: Candida albicans 1402; experiment: Sensititre YeastOne antifungal susceptibility test; format: cell-based
[5] = tested on: C. glabrata 1402; experiment: Sensititre YeastOne antifungal susceptibility test; format: cell-based; details: Nakaseomyces glabratus
[6] = tested on: C. krusei 1447; experiment: Sensititre YeastOne antifungal susceptibility test; format: cell-based; details: Pichia kudriavzevii
[7] = tested on: C. tropicalis 156; experiment: Sensititre YeastOne antifungal susceptibility test; format: cell-based; details: Candida tropicalis
[8] = tested on: C. parapsilosis 571; experiment: Sensititre YeastOne antifungal susceptibility test; format: cell-based; details: Lodderomyces parapsilosis
[9] = tested on: Cryptococcus neoformans 297; experiment: Sensititre YeastOne antifungal susceptibility test; format: cell-based
[10] = tested on: Cr. laurentii 325m; experiment: Sensititre YeastOne antifungal susceptibility test; format: cell-based; details: Papiliotrema laurentii
[11] = tested on: Aspergillus niger ATCC 16404; experiment: Disc-diffusion antifungal assay; format: cell-based; details: 40 µg/disc; A. niger ATCC 16404
[12] = tested on: A. niger 1133 m; experiment: Disc-diffusion antifungal assay; format: cell-based, Aspergillus niger; details: 40 µg/disc, pathogenic clinical isolate
[13] = tested on: A. fumigatus VKM F-37; experiment: Disc-diffusion antifungal assay; format: cell-based, Aspergillus fumigatus; details: 40 µg/disc
[14] = tested on: A. fumigatus 390 m; experiment: Disc-diffusion antifungal assay; format: cell-based, Aspergillus fumigatus; details: 40 µg/disc, pathogenic clinical isolate
[15] = tested on: A. terreus 3 K; experiment: Disc-diffusion antifungal assay; format: cell-based; details: 40 µg/disc
[16] = tested on: A. terreus 497; experiment: Disc-diffusion antifungal assay; format: cell-based; details: 40 µg/disc; A. terreus 497, pathogenic clinical isolate
[17] = tested on: reference and clinical strains of Aspergillus; experiment: Disc-diffusion antifungal assay, Aspergillus strains; format: cell-based; details: disc-diffusion, reference and clinical strains of Aspergillus
[18] = tested on: A. niger ATCC 16404; experiment: Broth two-fold microdilution MIC (CLSI); format: cell-based, Aspergillus niger; details: A. niger ATCC 16404; RPMI 1640 pH 7.0, 35 °C, 48 h, no visible growth
[19] = tested on: A. niger 1133 m; experiment: Broth two-fold microdilution MIC (CLSI); format: cell-based, Aspergillus niger; details: A. niger 1133 m clinical isolate; RPMI 1640 pH 7.0, 35 °C, 48 h
[20] = tested on: A. terreus 3 K; experiment: Broth two-fold microdilution MIC (CLSI); format: cell-based; details: A. terreus 3 K; RPMI 1640 pH 7.0, 35 °C, 48 h
[21] = tested on: A. terreus 497; experiment: Broth two-fold microdilution MIC (CLSI); format: cell-based; details: A. terreus 497 clinical isolate; RPMI 1640 pH 7.0, 35 °C, 48 h
[22] = tested on: A. fumigatus VKM F-37; experiment: Broth two-fold microdilution MIC (CLSI); format: cell-based, Aspergillus fumigatus; details: A. fumigatus VKM F-37; RPMI 1640 pH 7.0, 35 °C, 48 h
[23] = tested on: A. fumigatus 390 m; experiment: Broth two-fold microdilution MIC (CLSI); format: cell-based, Aspergillus fumigatus; details: A. fumigatus 390 m clinical isolate; RPMI 1640 pH 7.0, 35 °C, 48 h

Compound | MIC ([1]; Aspergillus niger, 1133M) [µg/mL] | MIC ([2]; 390M) [µg/mL] | MIC [3]; 497 [µg/mL] | MIC ([4]; Candida albicans, 1402) [µg/mL] | MIC [5]; 1402 [µg/mL] | MIC [6]; 1447 [µg/mL] | MIC [7]; 156 [µg/mL] | MIC [8]; 571 [µg/mL] | MIC ([9]; Cryptococcus neoformans, 297) [µg/mL] | MIC ([10]; 325M) [µg/mL] | also measured
Nc1[nH]c(=O)ncc1F [Emi 5-FC, flucytosine] | > 64 | > 64 | > 64 | 0.06 (≈ 0.465 µM) | 0.06 (≈ 0.465 µM) | 32 (≈ 248 µM) | 0.06 (≈ 0.465 µM) | 0.5 (≈ 3.87 µM) | 8 (≈ 62 µM) | 4 (≈ 31 µM) | 
CC(=O)N1CCN(c2ccc(OCC3COC(Cn4ccnc4)(c4ccc(Cl)cc4Cl)O3)cc2)CC1 (centres unmarked) [KZ, ketoconazole] | 16 (≈ 30.1 µM) | 8 (≈ 15.1 µM) | 8 (≈ 15.1 µM) | 4 (≈ 7.53 µM) | 4 (≈ 7.53 µM) | 0.5 (≈ 0.941 µM) | 0.5 (≈ 0.941 µM) | 0.5 (≈ 0.941 µM) | 0.06 (≈ 0.113 µM) | 0.12 (≈ 0.226 µM) | 
Methyldecanoyl-MePro-AHMOD-Ser-Aib-Ile-Iva-βAla-Alaol-Glyol [EmiC, emericellipsin C, homologue of emericellipsin A, nonribosomal peptaibol] |  |  |  |  |  |  |  |  |  |  | Zone of Inhibition [11]: 9 ± 0.31 mm; Zone of Inhibition [12]: 0 mm; Zone of Inhibition [13]: 0 mm; Zone of Inhibition [14]: 0 mm; Zone of Inhibition [15]: 0 mm; Zone of Inhibition [16]: 0 mm; antifungal activity against Aspergillus strains (in words) [17]: low activity only against A. niger strains; Minimal Inhibitory Concentration (MIC) [18]: 32 µg/mL; Minimal Inhibitory Concentration (MIC) [19]: 32 µg/mL; Minimal Inhibitory Concentration (MIC) [20]: 8 µg/mL; Minimal Inhibitory Concentration (MIC) [21]: 8 µg/mL; Minimal Inhibitory Concentration (MIC) [22]: 16 µg/mL; Minimal Inhibitory Concentration (MIC) [23]: 16 µg/mL
CC[C@@H]([C@H](C)O)n1ncn(-c2ccc(N3CCN(c4ccc(OC[C@@H]5CO[C@@](Cn6cncn6)(c6ccc(F)cc6F)C5)cc4)CC3)cc2)c1=O [PZ, posaconazole] |  |  |  |  |  |  |  |  |  |  | MIC ([1]; Sensititre YeastOne, Aspergillus niger 1133m clinical isolate, read-out: MIC): 0.5 µg/mL (≈ 0.713 µM); MIC ([2]; Sensititre YeastOne, A. fumigatus 390m clinical isolate, read-out: MIC): 0.25 µg/mL (≈ 0.357 µM); MIC ([3]; Sensititre YeastOne, A. terreus 497 clinical isolate, read-out: MIC): 0.12 µg/mL (≈ 0.171 µM); MIC ([4]; Sensititre YeastOne, Candida albicans 1402 clinical isolate, read-out: MIC): 0.5 µg/mL (≈ 0.713 µM); MIC ([5]; Sensititre YeastOne, C. glabrata 1402 clinical isolate, read-out: MIC): > 8 µg/mL; MIC ([6]; Sensititre YeastOne, C. krusei 1447 clinical isolate, read-out: MIC): 0.5 µg/mL (≈ 0.713 µM); MIC ([7]; Sensititre YeastOne, C. tropicalis 156 clinical isolate, read-out: MIC): > 8 µg/mL; MIC ([8]; Sensititre YeastOne, C. parapsilosis 571 clinical isolate, read-out: MIC): 1 µg/mL (≈ 1.43 µM); MIC ([9]; Sensititre YeastOne, Cryptococcus neoformans 297 clinical isolate, read-out: MIC): 0.25 µg/mL (≈ 0.357 µM); MIC ([10]; Sensititre YeastOne, Cr. laurentii 325m clinical isolate, read-out: MIC): 1 µg/mL (≈ 1.43 µM)
CCCCCOc1ccc(-c2cc(-c3ccc(C(=O)N[C@H]4C[C@@H](O)[C@@H](O)NC(=O)[C@@H]5[C@@H](O)[C@@H](C)CN5C(=O)[C@H]([C@H](O)CC(N)=O)NC(=O)[C@H]([C@H](O)[C@@H](O)c5ccc(O)c(OS(=O)(=O)O)c5)NC(=O)[C@@H]5C[C@@H](O)CN5C(=O)[C@H]([C@@H](C)O)NC4=O)cc3)no2)cc1 [MF, micafungin] (X1-[Orn(4R-OH,5R-OH)]T[Hyp][hTyr(3S-OH,4S-OH,3'-OSO3H)][Gln(3R-OH)][Pro(3S-OH,4S-Me)]; lactam 1-C) | > 8 | > 8 | > 8 | 0.03 (≈ 0.0236 µM) | 0.015 (≈ 0.0118 µM) | 0.12 (≈ 0.0945 µM) | 0.03 (≈ 0.0236 µM) | 1 (≈ 0.787 µM) | > 8 | > 8 | 
